Assay results from paper PMC6556873, “Rapid Covalent-Probe Discovery by Electrophile-Fragment Screening” (Journal of the American Chemical Society, 2019).
Like-named read-outs stand apart in the source and are kept apart here.

Columns and labels:
BSA = target: T1, BSA (Bos taurus, UniProt P02769); design: Intact protein LC/MS covalent labelling, fragments in pools of five, 200 uM each, 4 °C; details: 24 h, 4 °C, pool of five; 200 µM; covalent
T1 construct: gene ALB

NNMT (hNNMT) = target: T2, NNMT (hNNMT) (Homo sapiens, UniProt P40261); design: Intact protein LC/MS covalent labelling, fragments in pools of five, 200 uM each, 4 °C; details: 24 h, 4 °C, pool of five; 200 µM; covalent
T2 construct: wild type, N-terminal His6 tag kept (no cleavage described), E. coli, construct 31248 Da
T2 sequence (P40261 1-264): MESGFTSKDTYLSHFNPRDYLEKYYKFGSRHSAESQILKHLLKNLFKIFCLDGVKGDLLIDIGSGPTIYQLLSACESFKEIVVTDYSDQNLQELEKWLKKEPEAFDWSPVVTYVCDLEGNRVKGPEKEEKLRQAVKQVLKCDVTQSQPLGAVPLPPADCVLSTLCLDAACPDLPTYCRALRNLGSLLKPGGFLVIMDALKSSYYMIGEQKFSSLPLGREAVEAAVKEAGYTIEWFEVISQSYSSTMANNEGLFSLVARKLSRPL

NUDT7 = target: T3, NUDT7 (Homo sapiens, UniProt P0C024); design: Intact protein LC/MS covalent labelling, fragments in pools of five, 200 uM each, 4 °C; details: 24 h, 4 °C, pool of five; 200 µM; covalent
T3 construct: residues 14-235, E. coli, pNIC28-Bsa4, N-terminal His6 tag removed by TEV, construct 26672 Da

OTUB2 (OTUB2A) = target: T4, OTUB2 (OTUB2A) (Homo sapiens, UniProt Q96DC9); design: Intact protein LC/MS covalent labelling, fragments in pools of five, 200 uM each, 4 °C; details: 24 h, 4 °C, pool of five; 200 µM; covalent
T4 construct: full length residues 1-234, E. coli BL21(DE3)-R3, His tag removed by TEV, construct 27312 Da
T4 sequence (Q96DC9 1-234): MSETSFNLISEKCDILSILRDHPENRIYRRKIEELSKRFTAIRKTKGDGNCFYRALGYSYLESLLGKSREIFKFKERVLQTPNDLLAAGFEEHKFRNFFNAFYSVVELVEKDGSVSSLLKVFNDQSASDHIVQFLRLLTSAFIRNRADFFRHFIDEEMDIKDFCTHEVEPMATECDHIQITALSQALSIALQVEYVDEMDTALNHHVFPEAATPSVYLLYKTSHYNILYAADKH

PCAF = target: T5, PCAF (Homo sapiens, UniProt Q92831); design: Intact protein LC/MS covalent labelling, fragments in pools of five, 200 uM each, 4 °C; details: 24 h, 4 °C, pool of five; 200 µM; covalent
T5 construct: gene KAT2B

in vitro [1] = experiment: in vitro; design: species or system CCD841, HEK293; details: human, hb2 cells, read-out: HB-2 Cells Viability (%)
in vitro [2] = experiment: in vitro; design: species or system HB2, HEK293; details: human, ccd841 cells
in vitro [3] = experiment: in vitro; design: species or system HB2, CCD841; details: human, hek293 cells

T5 sequence (Q92831 whole entry, the tested form may be a part): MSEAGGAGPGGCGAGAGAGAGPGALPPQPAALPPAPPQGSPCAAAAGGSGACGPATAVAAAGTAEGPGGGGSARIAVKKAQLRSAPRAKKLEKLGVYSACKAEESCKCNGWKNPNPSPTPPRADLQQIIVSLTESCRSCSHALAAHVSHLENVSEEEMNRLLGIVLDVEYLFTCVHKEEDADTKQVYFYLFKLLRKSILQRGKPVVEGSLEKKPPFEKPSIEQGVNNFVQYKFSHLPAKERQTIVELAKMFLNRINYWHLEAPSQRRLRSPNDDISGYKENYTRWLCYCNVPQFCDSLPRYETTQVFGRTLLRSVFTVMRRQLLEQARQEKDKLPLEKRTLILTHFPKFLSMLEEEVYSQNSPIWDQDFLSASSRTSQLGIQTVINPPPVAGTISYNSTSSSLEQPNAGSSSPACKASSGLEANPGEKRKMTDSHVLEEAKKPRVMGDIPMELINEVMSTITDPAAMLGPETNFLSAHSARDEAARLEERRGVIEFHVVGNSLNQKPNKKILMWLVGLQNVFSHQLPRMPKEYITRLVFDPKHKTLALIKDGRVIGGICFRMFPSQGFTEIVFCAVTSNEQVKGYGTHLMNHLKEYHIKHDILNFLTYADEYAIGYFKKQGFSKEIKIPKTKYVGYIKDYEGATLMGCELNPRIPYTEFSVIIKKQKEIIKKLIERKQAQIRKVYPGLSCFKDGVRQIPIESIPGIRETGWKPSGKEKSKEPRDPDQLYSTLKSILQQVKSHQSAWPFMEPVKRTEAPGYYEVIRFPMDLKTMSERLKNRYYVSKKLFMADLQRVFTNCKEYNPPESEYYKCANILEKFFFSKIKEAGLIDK
T1 sequence (P02769 whole entry, the tested form may be a part): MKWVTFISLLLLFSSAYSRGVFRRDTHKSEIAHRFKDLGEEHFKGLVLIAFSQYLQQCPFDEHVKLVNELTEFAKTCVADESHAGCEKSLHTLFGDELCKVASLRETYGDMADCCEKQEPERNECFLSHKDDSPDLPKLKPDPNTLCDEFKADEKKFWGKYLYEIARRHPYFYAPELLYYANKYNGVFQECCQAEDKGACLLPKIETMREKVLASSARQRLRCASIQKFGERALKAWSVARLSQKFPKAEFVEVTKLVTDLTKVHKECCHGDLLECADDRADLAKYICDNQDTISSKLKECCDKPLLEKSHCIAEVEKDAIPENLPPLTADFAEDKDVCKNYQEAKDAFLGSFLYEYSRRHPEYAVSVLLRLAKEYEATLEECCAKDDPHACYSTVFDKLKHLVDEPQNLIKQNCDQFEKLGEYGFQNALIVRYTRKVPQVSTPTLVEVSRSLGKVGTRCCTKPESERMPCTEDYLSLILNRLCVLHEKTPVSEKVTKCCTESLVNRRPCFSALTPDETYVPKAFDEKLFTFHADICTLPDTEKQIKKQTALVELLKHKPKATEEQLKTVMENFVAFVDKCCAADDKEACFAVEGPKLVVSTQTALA
T3 sequence (P0C024 14-235): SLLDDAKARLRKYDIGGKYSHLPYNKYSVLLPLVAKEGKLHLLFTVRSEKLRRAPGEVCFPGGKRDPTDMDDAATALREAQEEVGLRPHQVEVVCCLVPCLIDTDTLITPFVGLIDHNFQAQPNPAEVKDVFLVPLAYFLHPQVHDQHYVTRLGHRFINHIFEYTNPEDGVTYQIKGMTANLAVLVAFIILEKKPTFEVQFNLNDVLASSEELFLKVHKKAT

Structure (SMILES): O=C(CCl)Nc1ccc2[nH]c(=O)[nH]c2c1 [PCM-0102866]
- BSA (BSA): 0
- NNMT (NNMT (hNNMT)): 0
- NUDT7 (NUDT7): 0
- OTUB2 (OTUB2 (OTUB2A)): 0.3
- PCAF (PCAF): 0
- viability at 48 h, 10 µM (in vitro [1]): 77.3%
- viability at 48 h, 10 µM (in vitro [2]): 73.7%
- viability at 48 h, 10 µM (in vitro [3]): 27.5%

Structure (SMILES): Cc1cccc(CN2CCN(C(=O)CCl)CC2)c1 [PCM-0102340]
- BSA (BSA): 0
- NNMT (NNMT (hNNMT)): 0.26
- NUDT7 (NUDT7): 0
- OTUB2 (OTUB2 (OTUB2A)): 0.17
- PCAF (PCAF): 0
- viability at 48 h, 10 µM (in vitro [1]): 19.6%
- viability at 48 h, 10 µM (in vitro [2]): 42.4%
- viability at 48 h, 10 µM (in vitro [3]): 15.3%

Structure (SMILES): O=C(CCl)Nc1ccnn1C1CCCC1 [PCM-0102336]
- BSA (BSA): 0
- NNMT (NNMT (hNNMT)): 0
- NUDT7 (NUDT7): 0
- OTUB2 (OTUB2 (OTUB2A)): 0.19
- PCAF (PCAF): 0
- viability at 48 h, 10 µM (in vitro [1]): 41.3%
- viability at 48 h, 10 µM (in vitro [2]): 60.4%
- viability at 48 h, 10 µM (in vitro [3]): 7.7%

Structure (SMILES): O=C(CCl)NNC(=O)C1CC1 [PCM-0102776]
- BSA (BSA): 0
- NNMT (NNMT (hNNMT)): 0
- NUDT7 (NUDT7): 0
- OTUB2 (OTUB2 (OTUB2A)): 0.23
- PCAF (PCAF): 0
- viability at 48 h, 10 µM (in vitro [1]): 93.1%
- viability at 48 h, 10 µM (in vitro [2]): 88.4%
- viability at 48 h, 10 µM (in vitro [3]): 90.2%

Structure (SMILES): CN1C(=O)c2ccc(NC(=O)CCl)cc2C1=O [PCM-0102309]
- BSA (BSA): 0
- NNMT (NNMT (hNNMT)): 0
- NUDT7 (NUDT7): 0.12
- OTUB2 (OTUB2 (OTUB2A)): 0.19
- PCAF (PCAF): 0
- viability at 48 h, 10 µM (in vitro [1]): 52.5%
- viability at 48 h, 10 µM (in vitro [2]): 61.2%
- viability at 48 h, 10 µM (in vitro [3]): 67.2%

Structure (SMILES): CN(C)C(=O)CN(C)C(=O)CCl [PCM-0102632]
- BSA (BSA): 0
- NNMT (NNMT (hNNMT)): 0
- NUDT7 (NUDT7): 0
- OTUB2 (OTUB2 (OTUB2A)): 0.14
- PCAF (PCAF): 0
- viability at 48 h, 10 µM (in vitro [1]): 102%
- viability at 48 h, 10 µM (in vitro [2]): 114%
- viability at 48 h, 10 µM (in vitro [3]): 89.7%

Structure (SMILES): CN(Cc1ccc(Cl)s1)C(=O)CCl [PCM-0102898]
- BSA (BSA): 0
- NNMT (NNMT (hNNMT)): 0.47
- NUDT7 (NUDT7): 0.29
- OTUB2 (OTUB2 (OTUB2A)): 0
- PCAF (PCAF): 0
- viability at 48 h, 10 µM (in vitro [1]): 11%
- viability at 48 h, 10 µM (in vitro [2]): 46.5%
- viability at 48 h, 10 µM (in vitro [3]): 7.8%

Structure (SMILES): C=CC(=O)N1CCc2ccccc21 [PCM-0102732]
- BSA (BSA): 0
- NNMT (NNMT (hNNMT)): 0.22
- NUDT7 (NUDT7): 0
- OTUB2 (OTUB2 (OTUB2A)): 0
- PCAF (PCAF): 0
- viability at 48 h, 10 µM (in vitro [1]): 93.4%
- viability at 48 h, 10 µM (in vitro [2]): 105%
- viability at 48 h, 10 µM (in vitro [3]): 72.5%

Structure (SMILES): O=C(CCl)N1CCC(C(=O)N2CCCC2)CC1 [PCM-0102655]
- BSA (BSA): 0
- NNMT (NNMT (hNNMT)): 0.17
- NUDT7 (NUDT7): 0
- OTUB2 (OTUB2 (OTUB2A)): 0
- PCAF (PCAF): 0
- viability at 48 h, 10 µM (in vitro [1]): 94%
- viability at 48 h, 10 µM (in vitro [2]): 78.5%
- viability at 48 h, 10 µM (in vitro [3]): 87%

Structure (SMILES): COc1ccc(C2=CCN(C(=O)CCl)CC2)cc1 [PCM-0102929]
- BSA (BSA): 0
- NNMT (NNMT (hNNMT)): 0.22
- NUDT7 (NUDT7): 0.45
- OTUB2 (OTUB2 (OTUB2A)): 0
- PCAF (PCAF): 0
- viability at 48 h, 10 µM (in vitro [1]): 59.4%
- viability at 48 h, 10 µM (in vitro [2]): 90.4%
- viability at 48 h, 10 µM (in vitro [3]): 71%

Structure (SMILES): CC(NC(=O)CCl)c1ccc(F)cc1F (stereo not shown) [PCM-0103035]
- BSA (BSA): 0
- NNMT (NNMT (hNNMT)): 0.58
- NUDT7 (NUDT7): 0.15
- OTUB2 (OTUB2 (OTUB2A)): 0.34
- PCAF (PCAF): 0
- viability at 48 h, 10 µM (in vitro [1]): 77.6%
- viability at 48 h, 10 µM (in vitro [2]): 78.2%
- viability at 48 h, 10 µM (in vitro [3]): 66.4%

Structure (SMILES): O=C(CCl)N1CCCCC1 [PCM-0102514]
- BSA (BSA): 0
- NNMT (NNMT (hNNMT)): 0
- NUDT7 (NUDT7): 0
- OTUB2 (OTUB2 (OTUB2A)): 0
- PCAF (PCAF): 0
- viability at 48 h, 10 µM (in vitro [1]): 92.8%
- viability at 48 h, 10 µM (in vitro [2]): 88.1%
- viability at 48 h, 10 µM (in vitro [3]): 90.8%

Structure (SMILES): C=CC(=O)Nc1ccc(C(=O)O)cc1 [PCM-0102271]
- BSA (BSA): 0
- NNMT (NNMT (hNNMT)): 0
- NUDT7 (NUDT7): 0
- OTUB2 (OTUB2 (OTUB2A)): 0
- PCAF (PCAF): 0
- viability at 48 h, 10 µM (in vitro [1]): 111%
- viability at 48 h, 10 µM (in vitro [2]): 94.2%
- viability at 48 h, 10 µM (in vitro [3]): 95.1%

Structure (SMILES): O=C(CCl)NC(=O)Nc1ccc2c(c1)OCCCO2 [PCM-0102910]
- BSA (BSA): 0
- NNMT (NNMT (hNNMT)): 0.69
- NUDT7 (NUDT7): 0
- OTUB2 (OTUB2 (OTUB2A)): 0
- PCAF (PCAF): 0
- viability at 48 h, 10 µM (in vitro [1]): 67.5%
- viability at 48 h, 10 µM (in vitro [2]): 67.2%
- viability at 48 h, 10 µM (in vitro [3]): 81%

Structure (SMILES): C=CC(=O)N1CCN(C(=O)CN2C(=O)CCC2=O)CC1 [PCM-0102684]
- BSA (BSA): 0
- NNMT (NNMT (hNNMT)): 0
- NUDT7 (NUDT7): 0.08
- OTUB2 (OTUB2 (OTUB2A)): 0
- PCAF (PCAF): 0
- viability at 48 h, 10 µM (in vitro [1]): 99.9%
- viability at 48 h, 10 µM (in vitro [2]): 103%
- viability at 48 h, 10 µM (in vitro [3]): 105%

Structure (SMILES): O=C(CCl)N1CCN(C(=O)C2CC2)CC1 [PCM-0102970]
- NNMT (NNMT (hNNMT)): 0
- NUDT7 (NUDT7): 0.07
- OTUB2 (OTUB2 (OTUB2A)): 0
- PCAF (PCAF): 0
- viability at 48 h, 10 µM (in vitro [1]): 83.8%
- viability at 48 h, 10 µM (in vitro [2]): 72.5%
- viability at 48 h, 10 µM (in vitro [3]): 66.6%

Structure (SMILES): C=CC(=O)N1CCCC1c1cccc2c1OCCO2 (stereo not shown) [PCM-0102489]
- NNMT (NNMT (hNNMT)): 0
- NUDT7 (NUDT7): 0
- OTUB2 (OTUB2 (OTUB2A)): 0
- PCAF (PCAF): 0
- viability at 48 h, 10 µM (in vitro [1]): 96.3%
- viability at 48 h, 10 µM (in vitro [2]): 99.1%
- viability at 48 h, 10 µM (in vitro [3]): 89.9%

Structure (SMILES): N#Cc1ccc(CNC(=O)CCl)cc1 [PCM-0102946]
- NNMT (NNMT (hNNMT)): 0.23
- NUDT7 (NUDT7): 0
- OTUB2 (OTUB2 (OTUB2A)): 0.35
- PCAF (PCAF): 0
- viability at 48 h, 10 µM (in vitro [1]): 85%
- viability at 48 h, 10 µM (in vitro [2]): 74.8%
- viability at 48 h, 10 µM (in vitro [3]): 88.1%

Structure (SMILES): C=CC(=O)N1CCC(c2nc3cccc(C)c3o2)CC1 [PCM-0102530]
- NNMT (NNMT (hNNMT)): 0
- NUDT7 (NUDT7): 0
- OTUB2 (OTUB2 (OTUB2A)): 0
- PCAF (PCAF): 0
- viability at 48 h, 10 µM (in vitro [1]): 108%
- viability at 48 h, 10 µM (in vitro [2]): 101%
- viability at 48 h, 10 µM (in vitro [3]): 94%
